On the set-up of data set [1]: method as in PMID 21574174. The conditions noted are these: clinical dose (45 mg/day) or double dose (90 mg/day); trial in Japan; cited from earlier work.
In data set [2] the test system is cyclin D1 and CDK4 in PLC/PRF/5 cells. The data set is described as follows: Western blotting of cell cycle regulatory proteins. Format: cell-based. Conditions: 24 h after treatment. Here is the method: We previously reported that MKH-DMG regulates cell cycle-related proteins as a mechanism of MKH-DMG-induced growth inhibition in PLC/PRF/5, Hep3B and SK-Hep-1 cells. Thus, to clarify the mechanisms of the growth inhibition induced by the MKH-ester prodrugs, we analyzed cell cycle-related proteins using Western blotting (Figure 7).
HCC cells were plated at 1.5 × 10^5 cells/well in 6-well plates and allowed to attach for 48 h. Cells were treated with MK-4, MKH-ACT, MKH-DMG or MKH-SUC for 24 h. Western blotting was performed as described previously.
In general terms: Immunoblotting shows a protein as a band on a membrane.

Data set [3] has as its system SK-Hep-1 cells. The data set is described as follows: MKH delivery into HCC cells: intracellular MKO and MK-4 concentration-time profiles. Format: in vitro ADME. Conditions: dose 25 μM, trapezoidal rule. The text has this:
(§1) When assessing the delivery of MKH into HCC cells by MKH-ester prodrugs, although the MKH levels in HCC cells should be quantified, it is difficult to determine an accurate MKH level owing to its rapidly oxidative characteristics to MK-4. Concomitant with γ-carboxylation in producing of vitamin K-dependent proteins, MKH is stoichiometrically converted to MK-4 epoxide (MKO), as shown in Figure 1. Thus, MKO levels in HCC cells can reflect the levels of MKH. In addition, the intracellular MK-4 in HCC cells after MKH-DMG treatment is the oxidative product of MKH, which is generated by hydrolysis of MKH-DMG [22]. The estimation rules of MKH in an earlier report were adopted in this study, in which the sum of MKO and MK-4 levels after MKH-ester prodrug treatment was regarded as the MKH level delivered into HCC cells. In MK-4 treatment, the MKH level was assessed by determining the level of MKO.
(§2) MKH delivery into HCC cells with 25 μM MKH-ester derivatives was determined after 1, 3, 6, 12 or 24 h of incubation. […] The AUC0–24h values for MKO (AUCMKO), MK-4 (AUCMK-4) and MKH (AUCMKH) were calculated using the trapezoidal rule (Table 3). […]
(§3) HCC cells were plated at 1.5 × 10^5 cells/well in 6-well plates and allowed to attach for 48 h. […] The protein concentration of the cell homogenate was determined using a BCA protein assay kit. […]

Data set [4] deals with PLC/PRF/5 cells. The data set is described as above. Format: in vitro ADME. The conditions noted are these: dose 25 μM, trapezoidal rule.
Text: as §1, §2, §3

For data set [5], the system named is SK-Hep-1 cells. The data set is described as follows: Cell viability assay (Cell Titer-Glo). Format: cell-based. The conditions noted are these: for IC50: Homo sapiens, 95% confidence interval in square brackets. Here is the method:
(§4) To assess the effects of MKH-ester prodrugs on HCC cell proliferation, DCP-positive (PLC/PRF/5) and DCP-negative (SK-Hep-1) HCC cell lines were treated with various concentrations of MKH-ACT, MKH-DMG, MKH-SUC or MK-4 up to 96 h, and cell viability was determined.
(§5) Cell viability was determined using a previously reported method. Briefly, PLC/PRF/5 and SK-Hep-1 cells were plated at 5.0 × 10^3 cells/well in 96-well plates and allowed to attach for 48 h. MK-4 and MKH-ACT were dissolved in 99.5% ethanol. MKH-SUC was dissolved in DMSO. MKH-DMG was dissolved in sterilized water. Stock solutions of each drug (50 mM) were diluted to the intended final concentrations with medium. Cells were exposed to MK-4, MKH-ACT, MKH-DMG or MKH-SUC for up to 96 h, and cell viability was evaluated using the Cell Titer-Glo Luminescent Cell Viability Assay (Promega, Madison, WI, USA) according to the manufacturer’s instructions. IC50 values were determined by a log [drug] vs. normalized response-variable slope analysis of GraphPad Prism, version 6.0 (GraphPad Software, San Diego, CA, USA).
In general terms: In ATP-based viability assays light output follows the ATP content of the culture.

The subject of data set [6] is PLC/PRF/5 cells. The experiment in a line: Cell viability assay (Cell Titer-Glo). Format: cell-based. The conditions noted are these: for IC50: Homo sapiens, 95% confidence interval in square brackets. The procedure:
as §4, §5

The source of these data is publication PMC6100056, “Antitumor Effects and Delivery Profiles of Menahydroquinone-4 Prodrugs with Ionic or Nonionic Promoiety to Hepatocellular Carcinoma Cells” (Molecules : A Journal of Synthetic Chemistry and Natural …, 2018).

Structures are written as SMILES. Where a name gives a salt, the structure may show the parent alone.

`CC(C)=CCC/C(C)=C/CC/C(C)=C/CC/C(C)=C/Cc1c(C)c(OC(=O)CCC(=O)O)c2ccccc2c1OC(=O)CCC(=O)O` (as salt: succinate) [MKH-SUC, Menahydroquinone-4 1,4-bis hemisuccinate]: the melting point (as a rule, the temperature of the solid-liquid transition) is 179 to 181 °C.

For `CC(C)=CCC/C(C)=C/CC/C(C)=C/CC/C(C)=C/CC1=C(C)C(=O)c2ccccc2C1=O` [MK-4, menaquinone-4, reference compound], the “Effect on cumulative recurrence of HCC” value in data set [1] was “did not find any statistically significant improvement”. Moreover, the “Effect on cyclin D1 and CDK4 expression compared with controls” value in data set [2] is “did not affect”. Besides, the “AUC0–24h for MK-4” value in data set [3] was found to be 41.6 ± 9.04 nmol·h·mg Protein^−1; in data set [4] it was 12.2 ± 4.19 nmol·h·mg Protein^−1. Moreover, the “Inhibition of cell viability of the control” value in data set [5] (60 μM, 72 h) is “about 20%”; in data set [5] (60 μM, 96 h) it was 40%; in data set [5] (20–40 μM, 96 h), 20%; in data set [6] (40–60 μM, 96 h) it was 30–40%. The 50% inhibitory concentration (IC50) (as a rule, the concentration needed to halve the response being measured) in data set [5] (SK-HEP1, 72 h) was 80.2 µM; in data set [5] (SK-HEP1, 96 h), 88.2 µM; in data set [6] (72 h) it was 188 µM; in data set [6] (96 h), 86.8 µM.
